Measured values from ChEMBL document CHEMBL1150850, “Cytotoxic principles from Ventilago leiocarpa” (J Nat Prod, 2001).
pIC50: −log10 of the molar value.

Assays:
Calu-1 [1] = experiment: Inhibition of human Calu1 cell proliferation assessed as [3H]thymidine incorporation after 3 days by scintillation counting; format: functional, cell-based
HeLa [2] = experiment: Inhibition of human HeLa cell proliferation assessed as [3H]thymidine incorporation after 3 days by scintillation counting; format: functional, cell-based
K562 [3] = experiment: Inhibition of human K562 cell proliferation assessed as [3H]thymidine incorporation after 3 days by scintillation counting; format: functional, cell-based
Raji [4] = experiment: Inhibition of human Raji cell proliferation assessed as [3H]thymidine incorporation after 3 days by scintillation counting; format: functional, cell-based
Vero [5] = experiment: Inhibition of african green monkey Vero cell proliferation assessed as [3H]thymidine incorporation after 3 days by scintillation counting; format: cell-based; conditions: Chlorocebus sabaeus
WISH [6] = experiment: Inhibition of human WISH cell proliferation assessed as [3H]thymidine incorporation after 3 days by scintillation counting; format: functional, cell-based
Calu-1 [7] = experiment: Growth inhibition of human Calu1 cells assessed as [3H]thymidine incorporation at 50 uM after 3 days by scintillation counting; format: functional; conditions: read-out: GI
Calu-1 [8] = experiment: Growth inhibition of human Calu1 cells assessed as [3H]thymidine incorporation at 25 uM after 3 days by scintillation counting; format: functional; conditions: read-out: GI
Calu-1 [9] = experiment: Growth inhibition of human Calu1 cells assessed as [3H]thymidine incorporation at 12.5 uM after 3 days by scintillation counting; format: functional; conditions: read-out: GI
Calu-1 [10] = experiment: Growth inhibition of human Calu1 cells assessed as [3H]thymidine incorporation at 6.25 uM after 3 days by scintillation counting; format: functional; conditions: read-out: GI
Calu-1 [11] = experiment: Growth inhibition of human Calu1 cells assessed as [3H]thymidine incorporation at 3.125 uM after 3 days by scintillation counting; format: functional; conditions: read-out: GI
HeLa [12] = experiment: Growth inhibition of human HeLa cells assessed as [3H]thymidine incorporation at 50 uM after 3 days by scintillation counting; format: functional; conditions: read-out: GI
HeLa [13] = experiment: Growth inhibition of human HeLa cells assessed as [3H]thymidine incorporation at 25 uM after 3 days by scintillation counting; format: functional; conditions: read-out: GI
HeLa [14] = experiment: Growth inhibition of human HeLa cells assessed as [3H]thymidine incorporation at 12.5 uM after 3 days by scintillation counting; format: functional; conditions: read-out: GI
HeLa [15] = experiment: Growth inhibition of human HeLa cells assessed as [3H]thymidine incorporation at 6.25 uM after 3 days by scintillation counting; format: functional; conditions: read-out: GI
HeLa [16] = experiment: Growth inhibition of human HeLa cells assessed as [3H]thymidine incorporation at 3.125 uM after 3 days by scintillation counting; format: functional; conditions: read-out: GI
K562 [17] = experiment: Growth inhibition of human K562 cells assessed as [3H]thymidine incorporation at 50 uM after 3 days by scintillation counting; format: functional; conditions: read-out: GI
K562 [18] = experiment: Growth inhibition of human K562 cells assessed as [3H]thymidine incorporation at 25 uM after 3 days by scintillation counting; format: functional; conditions: read-out: GI
K562 [19] = experiment: Growth inhibition of human K562 cells assessed as [3H]thymidine incorporation at 12.5 uM after 3 days by scintillation counting; format: functional; conditions: read-out: GI
K562 [20] = experiment: Growth inhibition of human K562 cells assessed as [3H]thymidine incorporation at 6.25 uM after 3 days by scintillation counting; format: functional; conditions: read-out: GI
K562 [21] = experiment: Growth inhibition of human K562 cells assessed as [3H]thymidine incorporation at 3.125 uM after 3 days by scintillation counting; format: functional; conditions: read-out: GI
Raji [22] = experiment: Growth inhibition of human Raji cells assessed as [3H]thymidine incorporation at 50 uM after 3 days by scintillation counting; format: functional; conditions: read-out: GI
Raji [23] = experiment: Growth inhibition of human Raji cells assessed as [3H]thymidine incorporation at 25 uM after 3 days by scintillation counting; format: functional; conditions: read-out: GI
Raji [24] = experiment: Growth inhibition of human Raji cells assessed as [3H]thymidine incorporation at 12.5 uM after 3 days by scintillation counting; format: functional; conditions: read-out: GI
Raji [25] = experiment: Growth inhibition of human Raji cells assessed as [3H]thymidine incorporation at 6.25 uM after 3 days by scintillation counting; format: functional; conditions: read-out: GI
Raji [26] = experiment: Growth inhibition of human Raji cells assessed as [3H]thymidine incorporation at 3.125 uM after 3 days by scintillation counting; format: functional; conditions: read-out: GI
[27] = Growth inhibition of african green monkey Vero cells assessed as [3H]thymidine incorporation at 50 uM after 3 days by scintillation counting; format: cell-based; conditions: chlorocebus sabaeus, read-out: GI
[28] = Growth inhibition of african green monkey Vero cells assessed as [3H]thymidine incorporation at 25 uM after 3 days by scintillation counting; format: cell-based; conditions: chlorocebus sabaeus, read-out: GI
Vero [29] = experiment: Growth inhibition of african green monkey Vero cells assessed as [3H]thymidine incorporation at 12.5 uM after 3 days by scintillation counting; format: cell-based; conditions: chlorocebus sabaeus, 72 h
[30] = Growth inhibition of african green monkey Vero cells assessed as [3H]thymidine incorporation at 6.25 uM after 3 days by scintillation counting; format: cell-based; conditions: chlorocebus sabaeus, read-out: GI
[31] = Growth inhibition of african green monkey Vero cells assessed as [3H]thymidine incorporation at 3.125 uM after 3 days by scintillation counting; format: cell-based; conditions: chlorocebus sabaeus, read-out: GI
WISH [32] = experiment: Growth inhibition of human WISH cells assessed as [3H]thymidine incorporation at 50 uM after 3 days by scintillation counting; format: functional; conditions: read-out: GI
WISH [33] = experiment: Growth inhibition of human WISH cells assessed as [3H]thymidine incorporation at 25 uM after 3 days by scintillation counting; format: functional; conditions: read-out: GI
WISH [34] = experiment: Growth inhibition of human WISH cells assessed as [3H]thymidine incorporation at 12.5 uM after 3 days by scintillation counting; format: functional; conditions: read-out: GI
WISH [35] = experiment: Growth inhibition of human WISH cells assessed as [3H]thymidine incorporation at 6.25 uM after 3 days by scintillation counting; format: functional; conditions: read-out: GI
WISH [36] = experiment: Growth inhibition of human WISH cells assessed as [3H]thymidine incorporation at 3.125 uM after 3 days by scintillation counting; format: functional; conditions: read-out: GI

`C=C(C)[C@@H]1CC[C@]2(C)CC[C@]3(C)[C@H](CC[C@@H]4[C@@]5(C)CC[C@H](O)C(C)(C)[C@@H]5CC[C@]43C)[C@@H]12` [LUPEOL] showed a pIC50 (Calu-1 [1]) of less than 4.00, a pIC50 (HeLa [2]) of less than 4.00 and a pIC50 (K562 [3]) of less than 4.00. For the same molecule, the pIC50 (Raji [4]) was less than 4.00, the pIC50 (Vero [5]) was less than 4.00 and the pIC50 (WISH [6]) was less than 4.00.

Work on `COc1cc(O)c2c(c1)C(=O)c1c(O)c(C)cc(O)c1C2=O` [PARIETIN] yielded a pIC50 (Calu-1 [1]) of less than 4.00, a pIC50 (HeLa [2]) of less than 4.00 and a pIC50 (K562 [3]) of less than 4.00. The pIC50 (Raji [4]) was less than 4.00, the pIC50 (Vero [5]) was less than 4.00 and the pIC50 (WISH [6]) was less than 4.00.

Work on `Cc1cc(O)c2c(c1)C(=O)c1c(c(O)cc(O)c1-c1c(O)cc(O)c3c1C(=O)c1cc(C)cc(O)c1C3=O)C2=O` [SKYRIN] yielded an inhibition of growth at 50 µM (Calu-1 [7]) of 100%, an inhibition of growth at 25 µM (Calu-1 [8]) of 100% and an inhibition of growth at 12.5 µM (Calu-1 [9]) of 24.9%. For the same molecule, the inhibition of growth at 6.25 µM (Calu-1 [10]) was 20.6%, the pIC50 (Calu-1 [1]) was 4.81 and the inhibition of growth at 3.125 µM (Calu-1 [11]) was 14.3%. The inhibition of growth at 50 µM (HeLa [12]) was 100%, the inhibition of growth at 25 µM (HeLa [13]) was 100% and the inhibition of growth at 12.5 µM (HeLa [14]) was 55%. The inhibition of growth at 6.25 µM (HeLa [15]) was 27%, the inhibition of growth at 3.125 µM (HeLa [16]) was 5.8% and the pIC50 (HeLa [2]) was 4.95. It also gave an inhibition of growth at 50 µM (K562 [17]) of 100%, an inhibition of growth at 25 µM (K562 [18]) of 50.6% and an inhibition of growth at 12.5 µM (K562 [19]) of 33.5%. The inhibition of growth at 6.25 µM (K562 [20]) was 22.2%, the inhibition of growth at 3.125 µM (K562 [21]) was 29.7% and the pIC50 (K562 [3]) was 4.56. For the same molecule, the inhibition of growth at 50 µM (Raji [22]) was 100%, the inhibition of growth at 25 µM (Raji [23]) was 82.1% and the inhibition of growth at 12.5 µM (Raji [24]) was 48.1%. The inhibition of growth at 6.25 µM (Raji [25]) was 36.8%, the inhibition of growth at 3.125 µM (Raji [26]) was 33.8% and the pIC50 (Raji [4]) was 4.91. The inhibition at 72 h, 50 µM [27] was 100%, the inhibition at 72 h, 25 µM [28] was 70.5% and the “growth inhibition (GI)” value (Vero [29]) was 34.8%. The inhibition at 72 h, 6.25 µM [30] was 23.1%, the inhibition at 72 h, 3.125 µM [31] was 19.9% and the pIC50 (Vero [5]) was 4.74. It also gave an inhibition of growth at 50 µM (WISH [32]) of 100%, an inhibition of growth at 25 µM (WISH [33]) of 60% and an inhibition of growth at 12.5 µM (WISH [34]) of 37.8%. It also gave an inhibition of growth at 6.25 µM (WISH [35]) of 23.4%, an inhibition of growth at 3.125 µM (WISH [36]) of 24.7% and a pIC50 (WISH [6]) of 4.67.

In the case of `CC[C@H](/C=C/[C@@H](C)[C@H]1CC[C@H]2[C@@H]3CC=C4C[C@@H](O)CC[C@]4(C)[C@H]3CC[C@]12C)C(C)C` [STIGMASTEROL], the pIC50 (Calu-1 [1]) was less than 4.00, the pIC50 (HeLa [2]) was less than 4.00 and the pIC50 (K562 [3]) was less than 4.00. It also gave a pIC50 (Raji [4]) of less than 4.00, a pIC50 (Vero [5]) of less than 4.00 and a pIC50 (WISH [6]) of less than 4.00.

In the case of `CC1(C)CC[C@]2(C)CC=C3[C@]4(C)CC[C@H]5C(C)(C)[C@@H](O)CC[C@]5(C)[C@H]4CC[C@@]3(C)[C@@H]2C1` [TARAXEROL], the pIC50 (Calu-1 [1]) was less than 4.00, the pIC50 (HeLa [2]) was less than 4.00 and the pIC50 (K562 [3]) was less than 4.00. For the same molecule, the pIC50 (Raji [4]) was less than 4.00, the pIC50 (Vero [5]) was less than 4.00 and the pIC50 (WISH [6]) was less than 4.00.

With `COC1=C(O)C(=O)c2c(cc3c(c2O)C(C)OC(C)C3)C1=O` (configuration not stated) [VENTILOQUINONE I] the pIC50 (Calu-1 [1]) was less than 4.00, the pIC50 (HeLa [2]) was less than 4.00 and the pIC50 (K562 [3]) was less than 4.00. The pIC50 (Raji [4]) was less than 4.00, the pIC50 (Vero [5]) was less than 4.00 and the pIC50 (WISH [6]) was less than 4.00.

In the case of `COC1=C(O)C(=O)c2c(O)c3c(c(OC)c2C1=O)CC(C)OC3C` (configuration not stated) [VENTILOQUINONE K], the pIC50 (Calu-1 [1]) was less than 4.00, the pIC50 (HeLa [2]) was less than 4.00 and the pIC50 (K562 [3]) was less than 4.00. It also gave a pIC50 (Raji [4]) of less than 4.00, a pIC50 (Vero [5]) of less than 4.00 and a pIC50 (WISH [6]) of less than 4.00.
